# According to ChEMBL document CHEMBL1157012, “Neural computational prediction of oral drug absorption based on CODES 2D descriptors” (Eur J Med Chem, 2010):
# Experiment: Human intestinal absorption in po dosed human
# Conditions: in vivo
row,SMILES,Fa [%]
1,CCCc1nc2c(C)cc(-c3nc4ccccc4n3C)cc2n1Cc1ccc(-c2ccccc2C(=O)O)cc1,90
2,N[C@H](Cc1ccccc1)C(=O)N1CCC[C@H]1C(=O)O,100
3,CNS(=O)(=O)Cc1ccc2[nH]cc(CCN(C)C)c2c1,57
4,CC1=C(CC(=O)O)c2cc(F)ccc2/C1=C\c1ccc([S+](C)[O-])cc1 (stereo not given),90
5,COc1ccccc1N1CCN(CCCNc2cc(=O)n(C)c(=O)n2C)CC1,78
6,Cc1cccc(C)c1NC(=O)NCCCNC(C)C,71
7,CCOC(=O)[C@H](CCc1ccccc1)N[C@@H](C)C(=O)N1CCC[C@H]1C(=O)O,66
8,COc1ccc(CCN(C)CCCC(C#N)(c2ccc(OC)c(OC)c2)C(C)C)cc1OC (stereo not given),97
9,CCCC(=O)Nc1ccc(OCC(O)CNC(C)C)c(C(C)=O)c1 (stereo not given) [ACEBUTOLOL],80
10,CC(=O)Nc1ccc(O)cc1 [ACETAMINOPHEN],80
11,Cc1ccc(/C(=C\CN2CCCC2)c2cccc(/C=C/C(=O)O)n2)cc1 [ACRIVASTINE],88
12,Nc1nc2c(ncn2COCCO)c(=O)[nH]1 [ACYCLOVIR],23
13,Nc1ncnc2c1ncn2CCOCP(=O)(O)O [ADEFOVIR],16
14,Cc1nnc2n1-c1ccc(Cl)cc1C(c1ccccc1)=NC2 [ALPRAZOLAM],90
15,N=C(N)NC(=O)c1nc(Cl)c(N)nc1N [AMILORIDE],50
16,O=C1O[C@H]([C@@H](O)CO)C(O)=C1O [ASCORBIC ACID],35
17,CC(=O)Oc1ccccc1C(=O)O [ASPIRIN],82
18,NS(=O)(=O)c1cc(-c2nnn[nH]2)c(NCc2cccs2)cc1Cl [AZOSEMIDE],10
19,C[C@H]1[C@H](NC(=O)/C(=N\OC(C)(C)C(=O)O)c2csc(N)n2)C(=O)N1S(=O)(=O)O [AZTREONAM],1
20,CC(C)NCC(O)COc1ccc(CCOCC2CC2)cc1 (stereo not given) [BETAXOLOL],90
21,O=C1CN=C(c2ccccn2)c2cc(Br)ccc2N1 [BROMAZEPAM],84
22,Cn1c(=O)c2c(ncn2C)n(C)c1=O [CAFFEINE],100
23,CN(C)C(=O)OC1N=C(c2ccccc2)c2cc(Cl)ccc2N(C)C1=O (stereo not given) [CAMAZEPAM],100
24,C[C@H](CS)C(=O)N1CCC[C@H]1C(=O)O [CAPTOPRIL],84

row,SMILES,Fa [%]
1,CC1(C)S[C@@H]2[C@H](NC(=O)C(C(=O)Oc3ccccc3)c3ccccc3)C(=O)N2[C@H]1C(=O)O (stereo not given in full) [CARBENICILLIN PHENYL],99
2,CC1=C(C(=O)O)N2C(=O)[C@@H](NC(=O)[C@H](N)c3ccc(O)cc3)[C@H]2SC1 [CEFADROXIL],100
3,N[C@@H](C(=O)N[C@@H]1C(=O)N2C(C(=O)O)=C(CSc3c[nH]nn3)CS[C@H]12)c1ccc(O)cc1 [CEFATRIZINE],75
4,CO/N=C(\C(=O)N[C@@H]1C(=O)N2C(C(=O)O)=CCS[C@H]12)c1csc(N)n1 [CEFTIZOXIME],72
5,CO/N=C(\C(=O)N[C@@H]1C(=O)N2C(C(=O)OC(C)OC(C)=O)=C(COC(N)=O)CS[C@H]12)c1ccco1 (stereo not given in full) [CEFUROXIME AXETIL],44
6,O=C(N[C@H](CO)[C@H](O)c1ccc([N+](=O)[O-])cc1)C(Cl)Cl [CHLORAMPHENICOL],90
7,ClC(Cl)Cl [CHLOROFORM],100
8,CN/C(=N/CCSCc1nc[nH]c1C)NC#N [CIMETIDINE],64
9,COc1cc(N)c(Cl)cc1C(=O)NC1CCN(CCCOc2ccc(F)cc2)CC1OC (stereo not given) [CISAPRIDE],100
10,CCOC(=O)C(C)(C)Oc1ccc(Cl)cc1 [CLOFIBRATE],97
11,Clc1cccc(Cl)c1N=C1NCCN1 [CLONIDINE],95
12,O=C([O-])c1cc(=O)c2c(OCC(O)COc3cccc4oc(C(=O)[O-])cc(=O)c34)cccc2o1.[Na+].[Na+] [CROMOLYN SODIUM],4
13,N[C@@H]1CON=C1O [CYCLOSERINE],73
14,CO[C@H]1C[C@H](O[C@H]2CC[C@]3(C=O)[C@H]4CC[C@]5(C)[C@@H](C6=CC(=O)OC6)CC[C@]5(O)[C@@H]4CC[C@]3(O)C2)O[C@H](C)[C@H]1O [CYMARIN],47
15,CNCCCN1c2ccccc2CCc2ccccc21 [DESIPRAMINE],100
16,C[C@H](N)Cc1ccccc1 [DEXTROAMPHETAMINE],90
17,COc1ccc2c3c1O[C@H]1[C@@H](O)CC[C@H]4[C@@H](C2)N(C)CC[C@@]341 [DIHYDROCODEINE],88
18,CN(CCCCCCN(C)C(=O)Oc1ccc[n+](C)c1)C(=O)Oc1ccc[n+](C)c1.[Br-].[Br-] [DISTIGMINE BROMIDE],8
19,COc1cccc2c1C(=O)c1c(O)c3c(c(O)c1C2=O)C[C@@](O)(C(=O)CO)C[C@@H]3O[C@H]1C[C@H](N)[C@H](O)[C@H](C)O1 [DOXORUBICIN],12
20,NCCCC(N)(C(=O)O)C(F)F (stereo not given) [EFLORNITHINE],55
21,C[C@H](N[C@@H](CCc1ccccc1)C(=O)O)C(=O)N1CCC[C@H]1C(=O)O [ENALAPRILAT ANHYDROUS],25
22,C#C[C@]1(O)CC[C@H]2[C@@H]3CCc4cc(O)ccc4[C@H]3CC[C@@]21C [ETHINYL ESTRADIOL],100
23,COc1cc([C@@H]2c3cc4c(cc3[C@@H](O[C@@H]3O[C@@H]5CO[C@@H](C)O[C@H]5[C@H](O)[C@H]3O)[C@H]3COC(=O)[C@H]23)OCO4)cc(OC)c1O [ETOPOSIDE],50
24,CC(=O)OCC(CCn1cnc2cnc(N)nc21)COC(C)=O [FAMCICLOVIR],77

row,SMILES,Fa [%]
1,NC(N)=Nc1nc(CSCCC(N)=NS(N)(=O)=O)cs1 [FAMOTIDINE],28
2,NC(=O)OCC(COC(N)=O)c1ccccc1 [FELBAMATE],90
3,CCOC(=O)C1=C(C)NC(C)=C(C(=O)OC)C1c1cccc(Cl)c1Cl (stereo not given) [FELODIPINE],88
4,O=C(NCC1CCCCN1)c1cc(OCC(F)(F)F)ccc1OCC(F)(F)F (stereo not given) [FLECAINIDE],81
5,C[C@@H]1O[C@@H]1P(=O)(O)O [FOSFOMYCIN],31
6,O=CN(O)CCCP(=O)(O)O [FOSMIDOMYCIN],30
7,NCC1(CC(=O)O)CCCCC1 [GABAPENTIN],59
8,COc1ccc(CCN(C)CCCC(C#N)(c2cc(OC)c(OC)c(OC)c2)C(C)C)cc1OC (stereo not given) [GALLOPAMIL],100
9,Cc1ccc(S(=O)(=O)NC(=O)NN2CC3CCCC3C2)cc1 (stereo not given) [GLICLAZIDE],65
10,COc1ccc(Cl)cc1C(=O)NCCc1ccc(S(=O)(=O)NC(=O)NC2CCCCC2)cc1 [GLYBURIDE],100
11,NCC(=O)O [GLYCINE],100
12,CN1C2CCCC1CC(NC(=O)c1nn(C)c3ccccc13)C2 (stereo not given) [GRANISETRON],100
13,N=C(N)N/N=C/c1c(Cl)cccc1Cl [GUANABENZ],80
14,N=C(N)NCC1COc2ccccc2O1 (stereo not given) [GUANOXAN],50
15,NS(=O)(=O)c1cc2c(cc1Cl)NCNS2(=O)=O [HYDROCHLOROTHIAZIDE],69
16,CN(C)CCCN1c2ccccc2CCc2ccccc21 [IMIPRAMINE],100
17,Nc1cc(-c2ccncc2)c[nH]c1=O [INAMRINONE],93
18,CNC(=O)c1c(I)c(NC(C)=O)c(I)c(C(=O)[O-])c1I.[Na+] [IOTHALAMATE SODIUM],2
19,NNC(=O)c1ccncc1 [ISONIAZID],80
20,Cc1cc(NC(=O)C2=C(O)c3ccccc3S(=O)(=O)N2C)no1 [ISOXICAM],100
21,CC(C(=O)O)c1cccc(C(=O)c2ccccc2)c1 (stereo not given) [KETOPROFEN],92
22,O=C(c1ccccc1)c1ccc2n1CCC2C(=O)O (stereo not given) [KETOROLAC],90
